According to article PMC9518259, “Design and synthesis of benzothiazole-based SLC-0111 analogues as new inhibitors for the cancer-associated carbonic anhydrase isoforms IX and XII” (Journal of Enzyme Inhibition and Medicinal Chemistry, 2022):
Where two headings read alike, the source gives them in different places.

Experiments:
[1] = molecular target: T1, hCA II (Homo sapiens, UniProt P00918); experiment: stopped-flow CO2 hydrase assay; type: biochemical
T1 construct: gene CA2
From the text: stopped-flow CO2 hydrase assay on hCA II

[2] = molecular target: T2, hCA IX (Homo sapiens, UniProt Q16790); experiment: stopped-flow CO2 hydrase assay; type: biochemical
T2 construct: gene CA9

[3] = molecular target: T3, hCA I (Homo sapiens, UniProt P00915); experiment: stopped-flow CO2 hydrase assay; type: biochemical
T3 construct: gene CA1
From the text: stopped-flow CO2 hydrase assay on hCA I

[4] = molecular target: T4, hCA XII (Homo sapiens, UniProt O43570); experiment: stopped-flow CO2 hydrase assay; type: biochemical
T4 construct: gene CA12

[5] = stopped-flow CO2 hydrase assay; type: biochemical, Homo sapiens; settings: read-out: KI (nM)^a / hCA I
[6] = stopped-flow CO2 hydrase assay; type: biochemical, Homo sapiens; settings: read-out: KI (nM)^a / hCA I; remark: listed apart in the source

T3 sequence (P00915 2-261): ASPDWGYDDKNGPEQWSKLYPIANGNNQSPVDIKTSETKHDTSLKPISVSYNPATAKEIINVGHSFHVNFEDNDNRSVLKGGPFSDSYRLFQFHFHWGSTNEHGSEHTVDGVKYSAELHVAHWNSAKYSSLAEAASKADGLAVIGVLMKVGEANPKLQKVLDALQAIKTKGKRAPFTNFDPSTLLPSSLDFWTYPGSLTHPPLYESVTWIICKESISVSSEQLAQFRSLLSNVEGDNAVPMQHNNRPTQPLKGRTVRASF
T4 sequence (O43570 25-354): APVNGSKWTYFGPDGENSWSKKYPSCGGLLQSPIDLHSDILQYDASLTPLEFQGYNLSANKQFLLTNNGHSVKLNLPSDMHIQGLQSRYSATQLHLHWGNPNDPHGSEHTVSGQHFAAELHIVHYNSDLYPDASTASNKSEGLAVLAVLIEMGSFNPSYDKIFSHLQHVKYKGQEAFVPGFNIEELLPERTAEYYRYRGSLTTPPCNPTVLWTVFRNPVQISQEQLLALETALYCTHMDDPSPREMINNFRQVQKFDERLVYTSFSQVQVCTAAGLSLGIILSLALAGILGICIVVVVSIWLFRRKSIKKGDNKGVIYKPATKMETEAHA

Compound	Ki [1]	Ki ([2]; read-out: KI (nM)^a / hCA IX)	Ki [3]	Ki [4]	Ki [5]	Ki ([2]; read-out: KI (nM)^a / hCA I)	Ki [6]
NS(=O)(=O)c1ccc(CCNC(=O)Nc2nc3ccccc3s2)cc1 [compound 12, 12]	28.5 nM	16.4 nM	61.5 nM	34.7 nM	–	–	–
NS(=O)(=O)c1ccc(CNC(=O)Nc2nc3ccccc3s2)cc1 [compound 10, 10]	204 nM	58.8 nM	946 nM	51.2 nM	–	–	–
O=C(Nc1ccc(C(=O)O)cc1)Nc1nc2ccccc2s1 [14c]	9470 nM	2410 nM	11800 nM	8540 nM	–	–	–
NS(=O)(=O)c1cccc(NC(=O)Nc2nc3ccccc3s2)c1 [8b]	653 nM	48.9 nM	4040 nM	57.5 nM	–	–	–
NS(=O)(=O)c1ccccc1NC(=O)Nc1nc2ccccc2s1 [8a]	785 nM	65.3 nM	12600 nM	41.2 nM	–	–	–
O=C(Nc1nc2ccccc2s1)Nc1ccccc1C(=O)O [14a]	75900 nM	44600 nM	68100 nM	39900 nM	–	–	–
NS(=O)(=O)c1ccc(NC(=O)Nc2nc3ccccc3s2)cc1 [8c]	54.1 nM	31.5 nM	362 nM	29.3 nM	–	–	–
O=C(Nc1cccc(C(=O)O)c1)Nc1nc2ccccc2s1 [14b]	94100 nM	16300 nM	82800 nM	9140 nM	–	–	–
O=C(Nc1ccc(S(=O)(=O)Nc2nccs2)cc1)Nc1nc2ccccc2s1 [16a]	–	56100 nM	> 100000 nM	32500 nM	> 100000 nM	–	–
Cc1noc(NS(=O)(=O)c2ccc(NC(=O)Nc3nc4ccccc4s3)cc2)c1C [16b]	–	–	> 100000 nM	–	> 100000 nM	> 100000 nM	> 100000 nM
